US12122811B2, “BDNF mimetic peptide amphiphiles” (Northwestern University, priority 2018, dated 2024)
Positions of bridges follow the written chain, without caps; N, C: chain ends. Non-standard residues stand in square brackets, D forms with d. Residues, ends and D or L forms follow the SMILES beside them. Chains are numbered I, II in the order given. *: point of attachment. PEG6 = NCCOCCOCCOCCOCCOCCOCCC(=O)O; Palmitoyl = CCCCCCCCCCCCCCCC(=O)*

Tests used:
[1] = system: primary mouse cortical neurons; experiment: Multi-electrode array (MEA) electrophysiology of neuronal cultures; format: cell-based; conditions: for spontaneous firing frequency: 30 days in vitro, relative to control condition; for network burst duration / spikes per network burst: over time, vs control media
Experimental: Electrophysiology—Multi Electrode Array (MEA) Plates. For 2D electrophysiology studies, 12 well MEA plates with 64 electrodes per well were coated with PEI and laminin according to Axion Biosystems protocols.^5 Embryonic primary neurons were seeded at a density of 60,000 cells/well and cultured during 14 DIV. On day 14, cells were treated with BDNF protein, BDNF PA, BDNF Peptide, or starvation media. Every 5 days, half of the media was removed from each well and replaced with fresh media containing additional treatment. Spontaneous network and synchronized activity was recorded using Axion Biosystems Maestro 768 channel amplifier and Axion Integrated Studios (AxIS) v2.4 software. The amplifier recorded from all channels simultaneously using a gain of 1200× and a sampling rate of 12.5 kHz/channel. After passing the signal through a Butterworth band-pass filter (300-5000 Hz) on-line spike detection (threshold=6× the root-mean-square of noise on each channel) was done with the AxIS adaptive spike detector. All recordings were conducted at 37° C. with appropriate 5% CO2/95% O2. Spontaneous network activity was recorded for 5 min each day starting at 10 DIV. Active electrodes were defined as having >5 spikes/min and only wells with over 10 active electrodes during the baseline-recording period were used in the analysis. Synchronized activity was defined as spike and burst activity that occurred on 25% of the electrodes or more in a well within 100 ms of each other. […] All data reflects well-wide averages, where the reported value of n represents the number of wells per condition.

[2] = system: PI3K pathway (pAKT); experiment: PI3K pathway activation, western blot of phosphorylated AKT (pAKT); format: cell-based, mouse; conditions: 6 h of treatment, vs control conditions
Experimental: For western blot, cells were cultured in 6 well plates at a density of approximately 900,000 cells/well for 14 DIV before being treated. Treatments were added for 2, 4, 6, 8, 12 or 24 h in vitro before protein was harvested. For TrkB inhibitor studies, cells were cultured for 14 DIV and then treated with a TrkB specific inhibitor, K-252a (Sigma Aldrich), for 1 hour prior to being treated with the different conditions mentioned above. Protein was extracted after six hours of treatment.
Western Blot. Protein was extracted from primary neuronal cultures with Halt Protease and Phosphatase Inhibitor Cocktail (Thermo Scientific) and a BCA assay (Thermo Scientific) was performed to determine protein content of each sample. Cell protein was loaded into and separated using a 4-20% SDS-PAGE gel (Bio-Rad). It was then electrotransferred from the gel to a nitrocellulose membrane (Bio-Rad). The membranes were blocked with 5% milk solution (Bio-Rad) for 30 minutes followed by an overnight incubation with primary antibodies at 4° C. […] Protein signals were detected using Radiance Bioluminescent ECL substrate (Azure Biosystems). Densitometry analysis, standardized to total receptor content or Actin as a control for protein loading, was performed using ImageJ software.^3 For quantification, triplicate samples were analyzed and at least two different experiments were conducted.

Molecule	spontaneous firing frequency [1]	network burst duration [1]	spikes per network burst [1]	activation of the PI3K pathway (pAKT) [2]
CCCCCCCCCCCCCCCC(=O)N[C@H](C(=O)N[C@H](C(=O)N[C@@H](C)C(=O)N[C@@H](C)C(=O)N[C@@H](CCC(=O)O)C(=O)N[C@@H](CCC(=O)O)C(=O)N[C@@H](CCC(=O)O)C(=O)N[C@@H](CCC(=O)O)C(=O)NCCOCCOCCOCCOCCOCCOCCC(=O)NCCCC[C@@H]1NC(=O)[C@H]2CCCN2C(=O)[C@H](CCCNC(=N)N)NC(=O)[C@H](CCCCN)NC(=O)[C@H](CCCCN)NC1=O)C(C)C)C(C)C [BDNF PA, RKK(aK)(dP)-(PEG6 Spacer)-EEEEAAVV-C16 (SEQ ID NO: 5)] (I: Palmitoyl-VVAAEEEE[PEG6] / II: cyclo(KKKR[dP]); amide I:C-II:1)	increased spontaneous firing frequency relative to the control condition	longer network bursts	significantly more spikes per network burst	marked increase in activation
BDNF protein: Human/Murine/Rat BDNF protein (Peprotech) (protein, UniProt P23560 19-247, looked up) Neurotrophic factor BDNF …: APMKEANIRGQGGLAYPGVRTHGTLESVNGPKAGSRGLTSLADTFEHVIEELLDEDQKVRPNEENNKDADLYTSRVMLSSQVPLEPPLLFLLEEYKNYLDAANMSMRVRRHSDPARRGELSVCDSISEWVTAADKKTAVDMSGGTVTVLEKVPVSKGQLKQYFYETKCNPMGYTKEGCRGIDKRHWNSQCRTTQSYVRALTMDSKKRIGWRFIRIDTSCVCTLTIKRGR	increased spontaneous firing frequency relative to the control condition	longer network bursts	significantly more spikes per network burst	marked increase in activation
